System: adult e-cigarette users
Conditions: 12 Weeks, N = 106, Safety Set
Text: A second measurement consisted of biochemically verified continuous vaping abstinence at any time during treatment, with vaping abstinence at Week 3-6 or Week 6-9 for of cytisinicline treatment vs placebo. 7-day point prevalence rates were compared for vaping abstinence (Week 2 to 12) (FIG. 62). An additional measurement included reduction in daily vaping as measured by cotinine, where cytisinicline treatment vs placebo for a reduction in nicotine vaping using weekly quantitative cotinine levels from Week 2 to Week 12. Safety was assessed by adverse effects and serious adverse effects, considering number, severity, and attribution to study drug.

With `O=c1cccc2n1C[C@@H]1CNC[C@H]2C1` [cytisine, (−)-Cytisine] the “At Least One AE, Events” value was 123 Events, the “At Least One AE, subjects” value was 56 (52.8) n (%) and the “At Least One Related Serious TEAE” value was 0 n (%)/Events. For the same molecule, the “At Least One Serious TEAE” value was 0 n (%)/Events, the “At Least One TEAE Leading to Dose Reduction, Dose Interrupted or Study Drug Discontinuation” value was 7 (6.6) n (%) and the “Subjects with Dose Reduction” value was 3 (2.8) n (%). For the same molecule, the “TEAE Abdominal discomfort, subjects %” value was “(0.9) %”, the “TEAE Abdominal discomfort, subjects n” value was 1 n and the “TEAE Abnormal dreams, subjects %” value was “(12.3) %”. The “TEAE Abnormal dreams, subjects n” value was 13 n, the “TEAE Action Taken With Study Drug: Dose Interrupted, Events” value was 1 Events and the “TEAE Action Taken With Study Drug: Dose Interrupted, subjects” value was 1 (0.9) n (%). For the same molecule, the “TEAE Action Taken With Study Drug: Dose Not Changed, Events” value was 101 Events, the “TEAE Action Taken With Study Drug: Dose Not Changed, subjects” value was 51 (48.1) n (%) and the “TEAE Action Taken With Study Drug: Dose Reduced, Events” value was 3 Events. For the same molecule, the “TEAE Action Taken With Study Drug: Dose Reduced, subjects” value was 3 (2.8) n (%), the “TEAE Action Taken With Study Drug: Drug Withdrawn, Events” value was 7 Events and the “TEAE Action Taken With Study Drug: Drug Withdrawn, subjects” value was 4 (3.8) n (%). The “TEAE Action Taken With Study Drug: Not Applicable, Events” value was 7 Events, the “TEAE Action Taken With Study Drug: Not Applicable, subjects” value was 5 (4.7) n (%) and the “TEAE Agitation, subjects” value was 0 n (%). The “TEAE Akathisia, subjects %” value was “(0.9) %”, the “TEAE Akathisia, subjects n” value was 1 n and the “TEAE Alanine aminotransferase increased, subjects” value was 0 n (%). For the same molecule, the “TEAE Alveolar osteitis, subjects” value was 0 n (%), the “TEAE Anal fissure, subjects %” value was “(0.9) %” and the “TEAE Anal fissure, subjects n” value was 1 n. The “TEAE Animal bite, subjects %” value was “(0.9) %”, the “TEAE Animal bite, subjects n” value was 1 n and the “TEAE Anxiety, subjects %” value was “(9.4) %”. The “TEAE Anxiety, subjects n” value was 10 n, the “TEAE Aspartate aminotransferase increased, subjects” value was 0 n (%) and the “TEAE Attention deficit hyperactivity disorder, subjects %” value was “(0.9) %”. For the same molecule, the “TEAE Attention deficit hyperactivity disorder, subjects n” value was 1 n, the “TEAE Back pain, subjects %” value was “(0.9) %” and the “TEAE Back pain, subjects n” value was 1 n. The “TEAE Bronchitis, subjects %” value was “(1.9) %”, the “TEAE Bronchitis, subjects n” value was 2 n and the “TEAE Chlamydial infection, subjects %” value was “(0.9) %”. The “TEAE Chlamydial infection, subjects n” value was 1 n, the “TEAE Concussion, subjects” value was 0 n (%) and the “TEAE Constipation, subjects %” value was “(1.9) %”. For the same molecule, the “TEAE Constipation, subjects n” value was 2 n, the “TEAE Decreased appetite, subjects %” value was “(0.9) %” and the “TEAE Decreased appetite, subjects n” value was 1 n. For the same molecule, the “TEAE Depressed mood, subjects” value was 0 n (%), the “TEAE Depression, subjects” value was 0 n (%) and the “TEAE Dermatitis contact, subjects %” value was “(0.9) %”. The “TEAE Dermatitis contact, subjects n” value was 1 n, the “TEAE Disturbance in attention, subjects %” value was “(0.9) %” and the “TEAE Disturbance in attention, subjects n” value was 1 n. For the same molecule, the “TEAE Dizziness, subjects %” value was “(2.8) %”, the “TEAE Dizziness, subjects n” value was 3 n and the “TEAE Dry mouth, subjects %” value was “(1.9) %”. For the same molecule, the “TEAE Dry mouth, subjects n” value was 2 n, the “TEAE Dyspepsia, subjects %” value was “(0.9) %” and the “TEAE Dyspepsia, subjects n” value was 1 n. For the same molecule, the “TEAE Ear infection, subjects” value was 0 n (%), the “TEAE Eye pruritus, subjects %” value was “(0.9) %” and the “TEAE Eye pruritus, subjects n” value was 1 n. For the same molecule, the “TEAE Fatigue, subjects %” value was “(5.7) %”, the “TEAE Fatigue, subjects n” value was 6 n and the “TEAE Female sterilisation, subjects %” value was “(0.9) %”. The “TEAE Female sterilisation, subjects n” value was 1 n, the “TEAE Gastroenteritis norovirus, subjects” value was 0 n (%) and the “TEAE Gastroenteritis viral, subjects” value was 0 n (%). For the same molecule, the “TEAE Gastroenteritis, subjects %” value was “(1.9) %”, the “TEAE Gastroenteritis, subjects n” value was 2 n and the “TEAE Gout, subjects %” value was “(0.9) %”. The “TEAE Gout, subjects n” value was 1 n, the “TEAE Headache, subjects %” value was “(6.6) %” and the “TEAE Headache, subjects n” value was 7 n. The “TEAE Hot flush, subjects %” value was “(0.9) %”, the “TEAE Hot flush, subjects n” value was 1 n and the “TEAE Hyperhidrosis, subjects” value was 0 n (%). For the same molecule, the “TEAE Increased appetite, subjects %” value was “(0.9) %”, the “TEAE Increased appetite, subjects n” value was 1 n and the “TEAE Insomnia, subjects %” value was “(10.4) %”. For the same molecule, the “TEAE Insomnia, subjects n” value was 11 n, the “TEAE Irritability, subjects %” value was “(2.8) %” and the “TEAE Irritability, subjects n” value was 3 n. For the same molecule, the “TEAE Leading to Dose Reduction, Dose Interrupted or Study Drug Discontinuation: Abdominal discomfort” value was 1 (0.9) n (%), the “TEAE Leading to Dose Reduction, Dose Interrupted or Study Drug Discontinuation: Abnormal dreams” value was 1 (0.9) n (%) and the “TEAE Leading to Dose Reduction, Dose Interrupted or Study Drug Discontinuation: Anal fissure” value was 1 (0.9) n (%). For the same molecule, the “TEAE Leading to Dose Reduction, Dose Interrupted or Study Drug Discontinuation: Anxiety” value was 2 (1.9) n (%), the “TEAE Leading to Dose Reduction, Dose Interrupted or Study Drug Discontinuation: Depression” value was 0 n (%) and the “TEAE Leading to Dose Reduction, Dose Interrupted or Study Drug Discontinuation: Fatigue” value was 1 (0.9) n (%). For the same molecule, the “TEAE Leading to Dose Reduction, Dose Interrupted or Study Drug Discontinuation: Headache” value was 0 n (%), the “TEAE Leading to Dose Reduction, Dose Interrupted or Study Drug Discontinuation: Insomnia” value was 2 (1.9) n (%) and the “TEAE Leading to Dose Reduction, Dose Interrupted or Study Drug Discontinuation: Irritability” value was 1 (0.9) n (%). For the same molecule, the “TEAE Leading to Dose Reduction, Dose Interrupted or Study Drug Discontinuation: Nausea” value was 0 n (%), the “TEAE Leading to Dose Reduction, Dose Interrupted or Study Drug Discontinuation: Panic attack” value was 2 (1.9) n (%) and the “TEAE Leading to Dose Reduction, Dose Interrupted or Study Drug Discontinuation: Pregnancy” value was 0 n (%). The “TEAE Menorrhagia, subjects %” value was “(0.9) %”, the “TEAE Menorrhagia, subjects n” value was 1 n and the “TEAE Migraine, subjects %” value was “(0.9) %”.

— patent US20260158011A1 (Achieve Life Sciences, Inc., priority 2023, published 2026)
